Reference: ChEMBL document CHEMBL1201862, “PubChem BioAssay data set” (2004)
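Values below derive from 48-hour exposures of cells grown in 96-well plates, with endpoints linearly interpolated between the two concentrations bracketing the appropriate inhibition level. GI50 marks 50% less growth.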 Activity calls are given as the source filed them. Cut-off read from the data, not from the text of the source: active = GI50 up to about 1.1 µM and inactive = higher.

Columns and labels:
Experiment in all cases: DTP human tumour cell line panel, 48 h
[1] = system: 786-0
[2] = system: A498
[3] = system: A549
[4] = system: ACHN
[5] = system: BT-549
[6] = system: CAKI-1
[7] = system: CCRF-CEM
[8] = system: COLO 205
[9] = system: DU-145
[10] = system: EKVX
[11] = system: HCC 2998
[12] = system: HCT-116
[13] = system: HCT-15
[14] = system: HL-60
[15] = system: HOP-62
[16] = system: HT-29
[17] = system: Hs-578T
[18] = system: IGROV-1
[19] = system: K562
[20] = system: KM12
[21] = system: LOX IMVI
[22] = system: M14
[23] = system: MCF7
[24] = system: MDA-MB-231
[25] = system: MDA-MB-435
[26] = system: MDA-N
[27] = system: MOLT-4
[28] = system: Malme-3M
[29] = system: NCI-H226
[30] = system: NCI-H23
[31] = system: NCI-H460
[32] = system: OVCAR-3
[33] = system: OVCAR-4
[34] = system: OVCAR-5
[35] = system: OVCAR-8
[36] = system: PC-3
[37] = system: RPMI-8226
[38] = system: RXF 393
[39] = system: SF-268
[40] = system: SF-295
[41] = system: SF-539
[42] = system: SK-MEL-28
[43] = system: SK-MEL-2
[44] = system: SK-MEL-5
[45] = system: SN12C
[46] = system: SNB-19
[47] = system: SNB-75
[48] = system: SR
[49] = system: SW-620
[50] = system: T47D
[51] = system: TK-10
[52] = system: U-251
[53] = system: UACC-257
[54] = system: UACC-62
[55] = system: UO-31
[56] = system: HOP-92
[57] = system: NCI-H522
[58] = system: NCI/ADR-RES
[59] = system: SK-OV-3

For `Cc1ncc([N+](=O)[O-])n1CCNC(=O)CCCn1ccnc1[N+](=O)[O-]`, the GI50 [1] was > 100 µM (inactive), the GI50 [2] was > 100 µM (inactive) and the GI50 [3] was > 100 µM (inactive). For the same compound, the GI50 [4] was > 100 µM (inactive), the GI50 [5] was > 100 µM (inactive) and the GI50 [6] was > 100 µM (inactive). The GI50 [7] was > 100 µM (inactive), the GI50 [8] was > 100 µM (inactive) and the GI50 [9] was > 100 µM (inactive). The GI50 [10] was > 100 µM (inactive), the GI50 [11] was > 100 µM (inactive) and the GI50 [12] was > 100 µM (inactive). For the same compound, the GI50 [13] was > 100 µM, the GI50 [14] was > 100 µM (inactive) and the GI50 [15] was > 100 µM (inactive). For the same compound, the GI50 [16] was > 100 µM (inactive), the GI50 [17] was > 100 µM (inactive) and the GI50 [18] was > 100 µM (inactive). The GI50 [19] was > 100 µM (inactive), the GI50 [20] was > 100 µM (inactive) and the GI50 [21] was > 100 µM (inactive). For the same compound, the GI50 [22] was > 100 µM (inactive), the GI50 [23] was > 100 µM (inactive) and the GI50 [24] was > 100 µM (inactive). For the same compound, the GI50 [25] was > 100 µM (inactive), the GI50 [26] was > 100 µM (inactive) and the GI50 [27] was > 100 µM (inactive). The GI50 [28] was > 100 µM (inactive), the GI50 [29] was > 100 µM (inactive) and the GI50 [30] was > 100 µM (inactive). For the same compound, the GI50 [31] was > 100 µM (inactive), the GI50 [32] was > 100 µM (inactive) and the GI50 [33] was > 100 µM (inactive). The GI50 [34] was > 100 µM (inactive), the GI50 [35] was > 100 µM (inactive) and the GI50 [36] was > 100 µM (inactive). For the same compound, the GI50 [37] was > 100 µM (inactive), the GI50 [38] was > 100 µM (inactive) and the GI50 [39] was > 100 µM (inactive). For the same compound, the GI50 [40] was > 100 µM (inactive), the GI50 [41] was > 100 µM (inactive) and the GI50 [42] was > 100 µM (inactive). The GI50 [43] was > 100 µM (inactive), the GI50 [44] was > 100 µM (inactive) and the GI50 [45] was > 100 µM (inactive). The GI50 [46] was > 100 µM (inactive), the GI50 [47] was > 100 µM (inactive) and the GI50 [48] was > 100 µM (inactive). The GI50 [49] was > 100 µM (inactive), the GI50 [50] was > 100 µM (inactive) and the GI50 [51] was > 100 µM (inactive). The GI50 [52] was > 100 µM (inactive), the GI50 [53] was > 100 µM (inactive) and the GI50 [54] was > 100 µM (inactive). The GI50 [55] was > 100 µM (inactive).
For `Cn1c(=O)nc2n(CCO)c(-c3ccccc3)c(-c3ccccc3)nc-2c1=O`, the GI50 [1] was > 100 µM (inactive), the GI50 [2] was > 100 µM (inactive) and the GI50 [3] was > 100 µM (inactive). The GI50 [4] was > 100 µM (inactive), the GI50 [5] was > 100 µM (inactive) and the GI50 [6] was > 100 µM (inactive). The GI50 [7] was > 100 µM (inactive), the GI50 [8] was > 100 µM (inactive) and the GI50 [9] was > 100 µM (inactive). For the same compound, the GI50 [10] was > 100 µM (inactive), the GI50 [11] was > 100 µM (inactive) and the GI50 [12] was > 100 µM (inactive). For the same compound, the GI50 [13] was > 100 µM, the GI50 [15] was > 100 µM (inactive) and the GI50 [56] was > 100 µM (inactive). For the same compound, the GI50 [16] was > 100 µM (inactive), the GI50 [17] was 86.3 µM (inactive) and the GI50 [18] was > 100 µM (inactive). The GI50 [19] was > 100 µM (inactive), the GI50 [20] was > 100 µM (inactive) and the GI50 [21] was > 100 µM (inactive). For the same compound, the GI50 [22] was > 100 µM (inactive), the GI50 [24] was > 100 µM (inactive) and the GI50 [25] was > 100 µM (inactive). The GI50 [26] was > 100 µM (inactive), the GI50 [27] was > 100 µM (inactive) and the GI50 [28] was > 100 µM (inactive). For the same compound, the GI50 [29] was > 100 µM (inactive), the GI50 [30] was > 100 µM (inactive) and the GI50 [31] was 39.1 µM (inactive). For the same compound, the GI50 [57] was > 100 µM (inactive), the GI50 [58] was > 100 µM (inactive) and the GI50 [32] was > 100 µM (inactive). The GI50 [33] was > 100 µM (inactive), the GI50 [34] was > 100 µM (inactive) and the GI50 [35] was > 100 µM (inactive). For the same compound, the GI50 [36] was > 100 µM (inactive), the GI50 [37] was > 100 µM (inactive) and the GI50 [38] was > 100 µM (inactive). For the same compound, the GI50 [39] was > 100 µM (inactive), the GI50 [40] was > 100 µM (inactive) and the GI50 [41] was > 100 µM (inactive). The GI50 [42] was > 100 µM (inactive), the GI50 [43] was > 100 µM (inactive) and the GI50 [44] was > 100 µM (inactive). The GI50 [59] was > 100 µM (inactive), the GI50 [45] was > 100 µM (inactive) and the GI50 [46] was > 100 µM (inactive). The GI50 [47] was > 100 µM (inactive), the GI50 [48] was > 100 µM (inactive) and the GI50 [49] was > 100 µM (inactive). The GI50 [50] was > 100 µM (inactive), the GI50 [51] was > 100 µM (inactive) and the GI50 [52] was > 100 µM (inactive). The GI50 [53] was > 100 µM (inactive), the GI50 [54] was > 100 µM (inactive) and the GI50 [55] was > 100 µM (inactive).
